Columns and labels:
Diabetic rats [1] = assay: Sciatic nerve motor conduction velocity in streptozotocin-diabetic rats; type: in vivo, Sprague-Dawley rats; details: for Sciatic Nerve Motor Conduction Velocity: group mean ± SEM (number of rats in brackets); for nerve conduction velocity (NCV), effect in words: animal model of diabetic neuropathy
Protocol: Motor nerve conduction velocity was measured (as previously described by Cameron et al, Diabetologia, 1993, Vol. 36, pages 299-304) between sciatic notch and knee in the nerve branch to tibialis anterior muscle, which is representative of the whole sciatic nerve in terms of susceptibility to diabetes and treatment effects.

Diabetic rats [2] = assay: Saphenous nerve sensory conduction velocity in streptozotocin-diabetic rats; type: in vivo, Sprague-Dawley rats; details: for Saphenous Nerve Sensory Conduction Velocity: group mean ± SEM (number of rats in brackets)
Protocol: Sensory conduction velocity in saphenous nerve was measured between the groin and ankle (as previously described by Cameron et al. Quarterly Journal of Experimental Physiology, 1989, vol. 74, pages 917-926).

Diabetic rats [3] = assay: Sciatic nerve blood flow by hydrogen clearance microelectrode polarography in streptozotocin-diabetic rats; details: for Sciatic Nerve Blood Flow: group mean ± SEM (number of rats in brackets); for nerve blood flow, effect in words: animal model of diabetic neuropathy
[4] = Diabetic + 2 weeks of dosing at 20 mg/kg
[5] = Diabetic + 2 weeks of dosing at 50 mg/kg
[6] = Rattus norvegicus, Dose response, 5 groups of 8 rats, dose ranged from 0.3-20 mg/kg

| SMILES | Sciatic Nerve Motor Conduction Velocity (Diabetic rats [1]; [4]) | Sciatic Nerve Motor Conduction Velocity (Diabetic rats [1]; [5]) | nerve conduction velocity (NCV), effect in words (Diabetic rats [1]) | Saphenous Nerve Sensory Conduction Velocity (Diabetic rats [2]; [4]) | Saphenous Nerve Sensory Conduction Velocity (Diabetic rats [2]; [5]) | Sciatic Nerve Blood Flow (Diabetic rats [3]; [5]) | nerve blood flow, effect in words (Diabetic rats [3]) | ED50 (Diabetic rats [1]; [6]) [mg/kg] | ED50 (Diabetic rats [2]; [6]) [mg/kg] | Sciatic Nerve Blood Flow (Diabetic rats [3]; [4]) |
| --- | --- | --- | --- | --- | --- | --- | --- | --- | --- | --- |
| CC(C)c1c(C(=O)Nc2ccccc2)c(-c2ccccc2)c(-c2ccc(F)cc2)n1CC[C@@H](O)C[C@@H](O)CC(=O)O [Atorvastatin, atorvastatin] | 61.53 ± 0.76 (6) | 63.59 ± 0.69 (6) | improvement | 59.77 m/s ± 0.93 (6) | 60.72 m/s ± 0.94 (6) | 16.96 ± 1.39 ml/min/100 g (6) | improvement | – | – | – |
| CC(C)c1nc(N(C)S(C)(=O)=O)nc(-c2ccc(F)cc2)c1/C=C/[C@@H](O)C[C@@H](O)CC(=O)O [The AGENT, (E)-7-[4-(4-fluorophenyl)-6-isopropyl-2-[methyl(methylsulfonyl)amino]pyrimidin-5-yl](3R,5S)-3,5-dihydroxyhept-6-enoic acid] | 63.34 ± 0.61 (8) | – | improvement | 60.57 m/s ± 0.83 (8) | – | – | improvement | 2.3 | 0.9 | 16.19 ± 0.51 ml/min/100 g (8) |
